Consider 5 compounds from ChEMBL document CHEMBL3124851, “A perspective on natural products research and ethnopharmacology in Mexico: the eagle and the serpent on the prickly pear cactus” (J Nat Prod, 2014).

SMILES strings stand for the structures.

One assay is filed under the species Rattus norvegicus. The experiment in a line: Increase in dopamine level in rat striatum by microdialysis assay (reference value: 4.2 nM). In kind it is functional.
The next assay addresses D(3) dopamine receptor (Homo sapiens, UniProt P35462). The experiment in a line: Agonist activity at dopamine D3 receptor (unknown origin).
A short description of assay [1]: Stimulation of dopaminergic neurons in rat posterior ventral tegmental area relative to ethanol. The format is functional.
The subject of another assay is Ileum. The experiment in a line: Spasmolytic activity in guinea pig ileum. Conditions: Cavia porcellus. The format is functional, tissue-based.
In assay [2] the test system is Mus musculus. The experiment in a line: Antinociceptive activity in mouse at 2 mg/kg, ip by writhing test. In kind it is functional. The conditions noted are these: route intraperitoneal.
Assay [3] deals with Mus musculus. The experiment in a line: Antinociceptive activity in mouse at 3 mg/kg, ip by writhing test. The conditions noted are these: route intraperitoneal. In kind it is functional. (An intraperitoneal irritant provokes the stretching counted in writhing tests.)

Chain of D(3) dopamine receptor (P35462 whole entry): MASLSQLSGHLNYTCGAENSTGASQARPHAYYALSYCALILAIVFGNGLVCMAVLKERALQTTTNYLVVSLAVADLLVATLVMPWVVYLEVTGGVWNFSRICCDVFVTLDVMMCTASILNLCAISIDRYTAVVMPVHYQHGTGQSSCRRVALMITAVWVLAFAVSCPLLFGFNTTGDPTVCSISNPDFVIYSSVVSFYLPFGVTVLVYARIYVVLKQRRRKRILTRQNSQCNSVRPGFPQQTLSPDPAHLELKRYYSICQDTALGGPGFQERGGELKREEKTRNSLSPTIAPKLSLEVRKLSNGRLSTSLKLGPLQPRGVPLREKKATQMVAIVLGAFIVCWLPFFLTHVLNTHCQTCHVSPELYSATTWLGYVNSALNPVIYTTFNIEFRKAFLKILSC

Regarding `C[C@H]1NCCc2cc(O)c(O)cc21`, the Activity in the assay listed under Rattus norvegicus is on record as 300 nM.

For orientation: Ki means a measure of affinity in units of concentration, obtained from inhibition or displacement. Higher therefore signals lower affinity. `C[C@@H]1NCCc2cc(O)c(O)cc21` showed an Activity in the assay filed under Rattus norvegicus of 21.5 nM. The compound also displayed a Ki at D(3) dopamine receptor of 500 nM.

For `CC1NCCc2cc(O)c(O)cc21` (configuration not stated), in assay [1], the “fold change (FC)” value was 1000000.

By IC50 is commonly meant the midpoint of a concentration-inhibition curve. Turning to `COc1ccc(-c2cc(=O)c3c(O)cc(O)cc3o2)cc1` [ACACETIN], in the assay on Ileum, it took 1100 nM to reach half-maximal inhibition (IC50). The Activity with Mus musculus [2] is 50%.

On to `C[C@H]1[C@H](C)CC[C@]2(C(=O)O)CC[C@]3(C)C(=CC[C@@H]4[C@@]5(C)CC[C@H](O)C(C)(C)[C@@H]5CC[C@]43C)[C@H]12` [URSOLIC ACID], for which the Activity in the assay with Mus musculus [3] came to 50%.
